According to patent US9387230B2, “Methods to treat cancer using cyclosporine and cyclosporine derivatives” (priority 2011, dated 2016):

Key:
[1] = test system: MCF10A wild type (WT) and PTEN knockout (PT−/−) cells; assay: crystal violet cell growth, 96 hours after treatment; type: cell-based
Procedure: MCF10A wild type (WT) and PTEN knockout (PT−/−) cells were seeded into 48-well plate with density of 4000 cells/well. The next day, the growth medium was changed to a medium containing Tacrolimus. Medium containing 0.1% DMSO was used as negative control. Ninety-six (96) hours after treatment, the cells were stained with crystal violet for cell growth. The cell growth of negative control group is set as 100%.
The next day, the growth medium was changed to a medium containing CsA (FIG. 9A) or an analog as depicted in each panel in FIG. 9B-D. Medium containing 0.1% DMSO was used as negative control. Ninety-six (96) hours after treatment, the cells were stained with crystal violet for cell growth. The cell growth of negative control group is set as 100%.
Medium containing 0.1% DMSO was used as negative control. Ninety-six (96) hours after treatment, the cells were stained with crystal violet and measured for cell growth. Cell growth of the negative control group is set as 100%.
MCF10A wild type (WT) and PTEN knockout (PT−/−) cells were seeded into 48-well plate with density of 4000 cells/well. The next day, the growth medium was changed to medium containing a compound, CsA or its analogs of Formula III-VIII. Medium containing 0.1% DMSO, was used as a negative control. Ninety six (96) hours after treatment, the cells were stained with crystal violet for cell growth. The cell growth of negative control group was set as 100%.
MCF10A wild type (WT) and PTEN knockout (PT−/−) cells were seeded into 48-well plates at a density of 4000 cells/well. […] Medium containing 0.1% DMSO was used as negative control. Ninety-six (96) hours after treatment, the cells were stained with crystal violet and measured for cell growth. Cell growth of the negative control group was set as 100% (FIG. 10A).

[2] = test system: MDA-MB-468 cells (PT−/−); assay: crystal violet cell growth, seven days after treatment; type: cell-based; settings: MDA-MB-468, seven days; FIG. 10B
Procedure: (§1) The next day, the growth medium was changed to medium containing CsA and NIM-811. Medium containing 0.1% DMSO was used as negative control. The medium was replenished once. Seven days after treatment, the cells were stained with crystal violet and measured for cell growth. Cell growth of the negative control group is set as 100%.
as §1, with “MDA-MB-468 cells (PT−/−) were seeded into 48-well plates at a density of 5000 cells/well. The next” for “The next”, “set as 100% (FIG. 10B).” for “set as 100%.”

SMILES: C=CC[C@@H]1/C=C(\C)C[C@H](C)C[C@H](OC)[C@H]2O[C@@](O)(C(=O)C(=O)N3CCCC[C@H]3C(=O)O[C@H](/C(C)=C/[C@@H]3CC[C@@H](O)[C@H](OC)C3)[C@H](C)[C@@H](O)CC1=O)[C@H](C)C[C@@H]2OC [tacrolimus]
- preferential killing of PTEN null cells ([1]; MCF10A WT vs PT−/−, FIG. 8): does not preferentially kill PTEN null cells
- inhibition of cancer cells ([1]; physiologic dosing, FIG. 8): does not inhibit cancer cells at physiologic dosing

SMILES: C/C=C/C[C@@H](C)[C@@H](O)[C@H]1C(=O)N[C@@H](CC)C(=O)N(C)CC(=O)N(C)[C@@H]([C@@H](C)CC)C(=O)N[C@@H](C(C)C)C(=O)N(C)[C@@H](CC(C)C)C(=O)N[C@@H](C)C(=O)N[C@H](C)C(=O)N(C)[C@@H](CC(C)C)C(=O)N(C)[C@@H](CC(C)C)C(=O)N(C)[C@@H](C(C)C)C(=O)N1C [NIM-811]
- differential inhibition of PT−/− MCF10A cells vs. isogenic wild type cells, compared to CsA ([1]; 96 hours, FIG. 10A): increased activity compared to CsA
- cell growth inhibition activity compared to CsA [2]: better cell growth inhibition activity compared to CsA
